Measured values: article PMC2832585 (Bioorganic & medicinal chemistry, 2009)
Where two headings read alike, the source gives them in different places.

Key:
[1] = system: single ventricular myocytes; assay: Cardiomyocyte contractility model; type: cell-based, rat
[2] = system: single ventricular myocytes; settings: read-out: EC50(cardio); previous data; ref [10]; cited from earlier work
human β2-AR = human β2-AR (Homo sapiens, UniProt P07550); assay: β2-AR binding, [3H]CGP-12177 displacement on HEK cell membranes; settings: relative to (R,R)-1 or (R,S)-1
β1-AR = β1-AR (Rattus norvegicus, UniProt P18090); assay: β1-AR binding, [3H]CGP-12177 displacement on rat cortical membranes
β1-AR, sequence (P18090 whole entry): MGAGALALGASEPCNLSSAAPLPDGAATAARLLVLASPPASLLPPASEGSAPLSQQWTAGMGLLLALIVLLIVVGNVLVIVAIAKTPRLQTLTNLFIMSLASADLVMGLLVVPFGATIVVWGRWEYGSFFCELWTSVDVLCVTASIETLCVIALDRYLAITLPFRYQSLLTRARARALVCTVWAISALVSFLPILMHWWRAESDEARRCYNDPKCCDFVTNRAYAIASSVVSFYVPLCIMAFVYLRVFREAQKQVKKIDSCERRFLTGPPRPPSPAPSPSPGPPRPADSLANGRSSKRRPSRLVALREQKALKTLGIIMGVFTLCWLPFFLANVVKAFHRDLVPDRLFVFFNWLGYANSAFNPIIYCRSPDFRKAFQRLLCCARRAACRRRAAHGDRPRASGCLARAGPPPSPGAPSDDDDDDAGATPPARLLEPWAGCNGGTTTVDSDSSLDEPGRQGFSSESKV

human β2-AR, sequence (P07550 whole entry): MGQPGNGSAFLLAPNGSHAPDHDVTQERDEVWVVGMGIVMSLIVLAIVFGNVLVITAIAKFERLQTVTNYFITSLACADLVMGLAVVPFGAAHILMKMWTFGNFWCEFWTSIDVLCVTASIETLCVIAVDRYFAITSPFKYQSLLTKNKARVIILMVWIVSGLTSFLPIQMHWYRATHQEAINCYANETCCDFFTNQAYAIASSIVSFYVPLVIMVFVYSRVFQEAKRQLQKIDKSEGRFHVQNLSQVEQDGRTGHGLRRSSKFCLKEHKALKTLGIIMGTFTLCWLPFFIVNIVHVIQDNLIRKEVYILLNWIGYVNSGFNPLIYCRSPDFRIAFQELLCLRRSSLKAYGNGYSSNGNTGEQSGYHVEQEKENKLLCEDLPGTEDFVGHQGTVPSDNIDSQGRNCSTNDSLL

C[C@H](Cc1ccc(O)cc1)NC[C@H](O)c1cc(O)cc(O)c1 [(R,R)-1, (R,R)-fenoterol]
EC50 ([1]; read-out: EC50cardio, cardiomyocyte contractility): 73 ± 18 nM

C[C@H](Cc1ccc(O)cc1)NC[C@@H](O)c1cc(O)cc(O)c1 [(S,R)-1]
EC50 [2]: 2340 nM

COc1ccc(C[C@@H](C)NC[C@@H](O)c2cc(O)cc(O)c2)cc1 [(S,R)-2]
EC50 [2]: 3160 nM

CC[C@H](Cc1ccc(O)cc1)NC[C@H](O)c1cc(O)cc(O)c1 [(R,R)-52, (R,R-(−)-5-(1-Hydroxy-2-(1-hydroxyphenyl)butan-2-ylamino)ethyl) benzene-1,3-diol]
Ki(β2-AR) fold greater than corresponding isomer of 1 (human β2-AR): ~ 4 fold | antagonism of the activity of zinterol ([1]; cardiomyocyte contractility model, data not shown): did not antagonize | sensitivity of cardiomyocyte contractility activity to pertussis toxin ([1]; initial data, data not shown, indicates activation of both GS and Gi proteins): sensitive to pertussis toxin | Ki(β1-AR) of (R,R)-isomer fold larger than (R,S)-isomer (β1-AR): 4 fold | Ki(β1-AR) fold higher than corresponding isomer of 1 (β1-AR; relative to (R,R)-1 or (R,S)-1): 28 fold

CC[C@@H](Cc1ccc(O)cc1)NC[C@H](O)c1cc(O)cc(O)c1 (racemic) [(R,S)-52]
Ki(β2-AR) fold greater than corresponding isomer of 1 (human β2-AR): 1.5 fold
